Test system: Hedgehog pathway
Assay: Gli-Luc assay (Hedgehog-responsive Luciferase reporter), 10T1/2(s12) cells with OCT-SHH
Format: cell-based
Details: OCT-SHH 0.3 μg/ml
Procedure: Compounds to be tested are dissolved in DMSO to a concentration of 10 MM, and stored at −20° C. To activate the Hedgehog pathway in the assay cells, an octylated (lipid-modified) form of the N-terminal fragment of the Sonic Hedgehog protein (OCT-SHH) is used. This N-terminal SHH fragment is produced bacterially.
Compounds may be tested in the “Gli-Luc” assay below, using the cell line 10T(s12), wherein the cells contain a Hedgehog-responsive reporter construct utilizing Luciferase as the reporter gene. In this way, Hedgehog pathway signaling activity can be measured via the Gli-Luc response.
10t1/2(s12) cells are plated in a 96-well micro-titer plate (MTP) at 20,000 cells/well in full medium [DMEM with 10% FBS]. Then plates are placed in the incubator for incubation overnight (O/N), at 37° C. and 5% CO2. After 24 h, the medium is replaced with Luciferase-assay medium (DMEM with 0.5% FBS). Compounds are thawed and diluted in assay medium at 3:1000 (about 300-fold) resulting in a starting concentration of about 30 μM.
Subsequently, 150 μl of each 30 μM sample is added to the first wells (in triplicate). The MTP samples are then diluted at 3-fold dilutions to a total of seven wells, ultimately resulting in a regiment of seven dilutions in triplicate, for each compound. Next, the protein ligand OCT-SHH is diluted in Luciferase-assay medium and added to each well at a final concentration of 0.3 μg/ml. Plates are then returned to the incubator for further incubation O/N, at 37° C. and 5% CO2. After about 24 h, plates are removed from the incubator and the medium is aspirated/discarded. Wells are washed once with assay buffer [PBS +1 mM Mg^2+and 1 mM Ca^2+]. Then 50 μl of assay buffer is added to each well. The Luciferase assay reagent is prepared as described by the vendor (LucLite kit from Packard), and 50 μl is added to each well. Plates are incubated at room temperature (RT) for about 30 minutes after which the signals are read, again at RT, on a Topcount (Packard).

IC50 | SMILES
< 1000 nM | COc1cccc(CN(C(=O)c2cccs2)C2CC(C(=O)N3CCNCC3)N(Cc3ccc(C)s3)C2)c1 (stereo not drawn) [A]
< 10000 nM | COc1cccc(CN(C(=O)C2CC2)C2CC(C(=O)N3CCNCC3)N(CC(C)C)C2)c1 (stereo not drawn) [A′]
< 1000 nM | CCc1ccc(CN2CC(N(Cc3cccc(OC)c3)C(=O)CC(C)(C)C)CC2C(=O)N2CCNCC2)s1 (stereo not drawn) [A″]
< 1000 nM | COc1cccc(CN(C(=O)C2CC2)C2CC(C(=O)N3CCNCC3)N(Cc3ccc(C)s3)C2)c1 (stereo not drawn) [B]
< 1000 nM | COc1cccc(CN(C(=O)CC(C)(C)C)[C@H]2C[C@@H](C(=O)NC3CCNCC3)N(Cc3ccc4c(c3)OCO4)C2)c1 [B′″]
< 1000 nM | COC(=O)c1ccsc1CN1CC(N(Cc2cccc(OC)c2)C(=O)CC(C)(C)C)CC1C(=O)N1CCNCC1 (stereo not drawn) [B″]
< 1000 nM | COc1cccc(CN2CC(N(Cc3cccc(OC)c3)C(=O)C3CC3)CC2C(=O)N2CCNCC2)c1 (stereo not drawn) [C]
< 1000 nM | COc1cccc(CN(C(=O)CC(C)(C)C)[C@H]2C[C@@H](C(=O)N3CCNCC3)N(Cc3ccc(Br)s3)C2)c1 [C″]
< 10000 nM | COc1cccc(CN(C(=O)CC(C)(C)C)[C@H]2C[C@@H](C(=O)N(C)C3CCNC3)N(Cc3ccc4c(c3)OCO4)C2)c1 (stereo partly drawn) [D′″]
< 10000 nM | COc1cccc(CN(C(=O)CC(C)(C)C)[C@H]2C[C@@H](C(=O)N3CCNCC3)N(Cc3ccc(-c4cccs4)s3)C2)c1 [D″]
< 100 nM | COc1cccc(CN(C(=O)C2CC2)C2CC(C(=O)N3CCNCC3)N(Cc3ccc4c(c3)OCO4)C2)c1 (stereo not drawn) [E]
< 10000 nM | COc1cccc(CN(C(=O)CC(C)(C)C)C2CC(C(=O)N3CCNCC3)N(Cc3ccc(-c4cc(C(F)(F)F)n(C)n4)s3)C2)c1 (stereo not drawn) [E″]
< 1000 nM | COc1cccc(CN2CC(N(Cc3cccc(OC)c3)C(=O)CC(C)(C)C)CC2C(=O)N2CCNCC2)c1 (stereo not drawn) [F]
< 10000 nM | COc1cccc(CN(C(=O)CC(C)(C)C)C2CC(C(=O)N3CCNCC3)N(Cc3cc4ccccc4n3C)C2)c1 (stereo not drawn) [F″]
< 1000 nM | COc1cccc(CN(C(=O)CC(C)C)C2CC(C(=O)N3CCNCC3)N(Cc3ccsc3)C2)c1 (stereo not drawn) [G]
< 1000 nM | COc1cccc(CN(C(=O)CC(C)(C)C)[C@H]2C[C@@H](C(=O)N3CCNCC3)N(Cc3cc(C)c(C)o3)C2)c1 [G″]
< 100 nM | COc1cccc(CN(C(=O)CC(C)C)C2CC(C(=O)N3CCNCC3)N(Cc3ccc4c(c3)OCCO4)C2)c1 (stereo not drawn) [H]
< 10000 nM | COc1cccc(CN(C(=O)CC(C)(C)C)[C@H]2C[C@@H](C(=O)N3CCNCC3)N(Cc3ccc(C=O)s3)C2)c1 [H″]
< 100 nM | COc1cccc(CN(C(=O)NC(C)(C)C)[C@H]2C[C@@H](C(=O)N3CCNCC3)N(Cc3ccc4c(c3)OCO4)C2)c1 [I″]
< 100 nM | COc1cccc(CN(C(=O)CC(C)(C)C)C2CC(C(=O)N3CCNCC3)N(Cc3ccc4c(c3)OCCO4)C2)c1 (stereo not drawn) [J]

IC50 | SMILES
< 100 nM | COc1cccc(CN(C(=O)CC2CC2)[C@H]2C[C@@H](C(=O)N3CCNCC3)N(Cc3ccc4c(c3)OCO4)C2)c1 [J″]
< 100 nM | COc1cccc(CN(C(=O)CC(C)(C)C)C2CC(C(=O)N3CCNCC3)N(Cc3ccc(OC)c(OC)c3OC)C2)c1 (stereo not drawn) [K]
< 10000 nM | CCOc1cc(CN2CC(N(Cc3cccc(OC)c3)C(=O)CC(C)(C)C)CC2C(=O)N2CCNCC2)ccc1OC (stereo not drawn) [K′]
< 10000 nM | COc1cccc(CN(C(=O)CC(C)(C)C)C2CC(C(=O)N3CCNCC3)N(Cc3cc(Br)cs3)C2)c1 (stereo not drawn) [L]
< 1000 nM | COc1cccc(CN(C(=O)CC(C)C(F)(F)F)C2CC(C(=O)N3CCNCC3)N(Cc3ccc4c(c3)OCO4)C2)c1 (stereo not drawn) [L″]
< 1000 nM | COc1cccc(CN(C(=O)CC(C)(C)C)C2CC(C(=O)N3CCNCC3)N(Cc3ccc4c(c3)OCO4)C2)c1 (stereo not drawn) [M]
< 100 nM | COc1cccc(CN(C(=O)CC(C)(C)C)C2CC(C(=O)N3CCNCC3)N(Cc3ccc(C)s3)C2)c1 (stereo not drawn) [M′]
< 1000 nM | COc1cccc(CN(C(=O)CC(C)(C)C)C2CC(C(=O)N3CCNCC3)N(Cc3ccc4c(c3)OCO4)C2)c1 (stereo not drawn) [N]
< 100 nM | COc1cccc(CN(C(=O)C(C)C)C2CC(C(=O)N3CCNCC3)N(Cc3ccc(C)s3)C2)c1 (stereo not drawn) [O]
< 100 nM | COc1cccc(CN(C(=O)CC(C)(C)C)C2CC(C(=O)N3CCNCC3)N(Cc3ccc4c(c3)OCO4)C2)c1 (stereo not drawn) [O′]
< 1000 nM | COc1cccc(CN(C(=O)NC(C)C)[C@H]2C[C@@H](C(=O)N3CCNCC3)N(Cc3ccc4c(c3)OCO4)C2)c1 [O″]
< 100 nM | COc1cccc(CN(C(=O)C(C)C)C2CC(C(=O)N3CCNCC3)N(Cc3ccc4c(c3)OCO4)C2)c1 (stereo not drawn) [P]
< 10000 nM | COc1cccc(CN(C(=O)C(C)C)C2CC(C(=O)N3CCNCC3)N(Cc3ccc(OC)c(OC)c3OC)C2)c1 (stereo not drawn) [P′]
< 10000 nM | COCC(=O)N(Cc1cccc(OC)c1)[C@H]1C[C@@H](C(=O)N2CCNCC2)N(Cc2ccc3c(c2)OCO3)C1 [P″]
< 10000 nM | COc1cccc(CN(C(=O)CC(C)CCC=C(C)C)C2CC(C(=O)N3CCNCC3)N(Cc3ccc4c(c3)OCO4)C2)c1 (stereo not drawn) [Q″]
< 1000 nM | COc1cccc(CN(C(=O)CC(C)(C)C)C2CC(C(=O)N3CCNCC3)N(Cc3ccccc3)C2)c1 (stereo not drawn) [R]
< 1000 nM | COc1cccc(CN(C(=O)CC(C)C)C2CC(C(=O)N3CCNCC3)N(Cc3ccc4c(c3)OCCO4)C2)c1 (stereo not drawn) [R′]
< 10000 nM | CCC(=O)N(Cc1cccc(OC)c1)C1CC(C(=O)N2CCNCC2)N(Cc2ccc(OC)c(OC)c2OC)C1 (stereo not drawn) [S′]
< 1000 nM | COc1cccc(CN(C(=O)CC(C)(C)C)C2CC(C(=O)N3CCNCC3)N(CC3CCCCC3)C2)c1 (stereo not drawn) [T]

Further lines, the compound ahead of its results:

SMILES | IC50
NCCNC(=O)C1CC(N(CCc2ccccc2)C(=O)C2CCCCC2)CN1CC1CCCCC1 (stereo not drawn) [B′] | < 10000 nM
COc1cccc(CN(C(=O)CC(C)C)C2CC(C(=O)N3CCNCC3)N(Cc3ccc(OC)c(OC)c3OC)C2)c1 (stereo not drawn) [Compound I] | < 10000 nM
O=C(C1CC(N(CC2CCCCC2)CC2CC2)CN1Cc1ccc(F)cc1)N1CCCNCC1 (stereo not drawn) [C′] | < 10000 nM
Cc1ccc(CN2CC(N(Cc3cccs3)C(=O)c3cccs3)CC2C(=O)N2CCNCC2)s1 (stereo not drawn) [D′] | < 10000 nM
O=C(C1CC(N(CC2CCCCC2)CC2CCCO2)CN1Cc1ccc(F)cc1)N1CCNCC1 (stereo not drawn) [E′] | < 10000 nM
CCN1CCC(N(CC)C(=O)[C@@H]2C[C@H](N(Cc3cccc(OC)c3)C(=O)CC(C)(C)C)CN2Cc2ccc3c(c2)OCO3)C1 (stereo partly drawn) [E′″] | < 10000 nM
NCCNC(=O)C1CC(N(CCc2ccccc2)Cc2ccc([N+](=O)[O-])cc2)CN1CC1CCCCC1 (stereo not drawn) [F′] | < 10000 nM
CCNCCCN(CC)C(=O)[C@@H]1C[C@H](N(Cc2cccc(OC)c2)C(=O)CC(C)(C)C)CN1Cc1ccc2c(c1)OCO2 [F′″] | < 1000 nM
COc1cccc(CN2CC(N(CCc3ccccc3)Cc3ccccc3C)CC2C(=O)NCCN)c1 (stereo not drawn) [G′] | < 10000 nM
Cc1ccc(CN2CC(N(CCc3ccccc3)Cc3ccc(F)cc3)CC2C(=O)NCCN)s1 (stereo not drawn) [H′] | < 10000 nM
Cc1ccccc1CN(CCc1ccccc1)C1CC(C(=O)NCC2CCC(CN)CC2)N(Cc2ccc3c(c2)OCO3)C1 (stereo not drawn) [I′] | < 10000 nM
CC(C)CN(C(=O)c1cccs1)C1CC(C(=O)NC2CCC(N)CC2)N(CC2CCCCC2)C1 (stereo not drawn) [J′] | < 10000 nM
COc1cccc(CN(C(=O)CC2CCCC2)C2CC(C(=O)N3CCNCC3)N(Cc3ccc4c(c3)OCO4)C2)c1 (stereo not drawn) [K″] | < 1000 nM
C=CCOC(=O)N(Cc1cccc(OC)c1)[C@H]1C[C@@H](C(=O)N2CCNCC2)N(Cc2ccc3c(c2)OCO3)C1 [M″] | < 1000 nM
COc1cccc(CN(C(=O)C2CC2)C2CC(C(=O)N3CCNCC3)N(Cc3ccc(OC)c(OC)c3OC)C2)c1 (stereo not drawn) [N′] | < 1000 nM
COc1cccc(CN2CC(N(Cc3cccc(OC)c3)C(=O)c3cccs3)CC2C(=O)N2CCNCC2)c1 (stereo not drawn) [Q] | < 1000 nM
COc1cccc(CN(C(=O)c2ccco2)C2CC(C(=O)N3CCNCC3)N(Cc3ccc4c(c3)OCCO4)C2)c1 (stereo not drawn) [Q′] | < 10000 nM
Cc1cccc(CN(C(=O)CC(C)C)[C@H]2C[C@@H](C(=O)N3CCNCC3)N(Cc3ccc4c(c3)OCO4)C2)c1 [R″] | < 1000 nM
COc1cccc(CN(C(=O)C2CC2)C2CC(C(=O)N3CCNCC3)N(CC3CCCCC3)C2)c1 (stereo not drawn) [S] | < 1000 nM
CC(C)CC(=O)N(Cc1cccc(C#N)c1)C1CC(C(=O)N2CCNCC2)N(Cc2ccc3c(c2)OCO3)C1 (stereo not drawn) [S″] | < 1000 nM
COc1cccc(CN(C(=O)C2CCC2)C2CC(C(=O)N3CCNCC3)N(Cc3ccc(OC)c(OC)c3OC)C2)c1 (stereo not drawn) [T′] | < 1000 nM
CC(C)CC(=O)N(Cc1cccc(O)c1)C1CC(C(=O)N2CCNCC2)N(Cc2ccc3c(c2)OCO3)C1 (stereo not drawn) [T″] | < 1000 nM
Cc1ccc(CN2CC(N(Cc3cccs3)C(=O)C3CC3)CC2C(=O)N2CCNCC2)s1 (stereo not drawn) [U] | < 1000 nM
COc1cccc(CN(C(=O)C2CCC2)C2CC(C(=O)N3CCNCC3)N(Cc3ccc4c(c3)OCCO4)C2)c1 (stereo not drawn) [U′] | < 1000 nM
CC(C)CC(=O)N(Cc1cccc([N+](=O)[O-])c1)C1CC(C(=O)N2CCNCC2)N(Cc2ccc3c(c2)OCO3)C1 (stereo not drawn) [U″] | < 10000 nM
O=C(C1CC(N(Cc2cccs2)C(=O)C2CC2)CN1Cc1ccc2c(c1)OCO2)N1CCNCC1 (stereo not drawn) [V] | < 1000 nM
COc1cccc(CN(C(=O)C2CCCC2)C2CC(C(=O)N3CCNCC3)N(Cc3ccc(OC)c(OC)c3OC)C2)c1 (stereo not drawn) [V′] | < 1000 nM

— patent US20020165221A1, “Mediators of hedgehog signaling pathways, compositions and uses related thereto” (priority 2000, published 2002)
